Source: ChEMBL document CHEMBL5329192, “Synthesis, biological activities, and future perspectives of steroidal monocyclic pyridines” (RSC Med Chem, 2023)
Each block holds one molecule with its values, some of them ahead of it.

Columns and labels:
[1] = tested on: MGC-803; test: Antiproliferative activity against human MGC-803 cells assessed as cell growth inhibition measured after 48 hrs by MTT assay; assay type: functional, cell-based; settings: MGC-803, 48 h
[2] = tested on: EC9706; test: Antiproliferative activity against human EC9706 assessed as reduction in cell proliferation incubated for 72 hrs by MTT assay; assay type: functional, cell-based; settings: EC9706, 72 h
[3] = tested on: ECa-109 cell line; test: Antiproliferative activity against human EC109 cells assessed as reduction in cell proliferation incubated for 72 hrs by MTT assay; assay type: functional, cell-based; settings: ECa-109, 72 h
[4] = Acute toxicity in ip dosed albino rat administered twice daily for 14 days; assay type: organism-based; settings: in vivo, time 14 day
[5] = tested on: Rattus norvegicus; test: Anti-androgen activity against albino rat assessed as mass gain of prostate gland at 0.1 mg/kg, sc administered for 7 days; assay type: functional; settings: time 7 day
[6] = tested on: Rattus norvegicus; test: Anti-anabolic activity against albino rat assessed as mass gain of levator ani-muscle at 0.1 mg/kg, sc administered for 7 days; assay type: functional; settings: time 7 day
[7] = organism: Rattus norvegicus; test: Ratio of anti-anabolic activity against albino rat assessed as reduction in mass of levator ani-muscle to anti-androgenic activity against albino rat assessed as mass gain of prostate gland; assay type: functional
[8] = tested on: PC-3; test: Cytotoxicity against human PC-3 cells assessed as reduction in cell viability incubated for 48 hrs by SRB assay; assay type: toxicity, cell-based; settings: PC-3, 48 h
[9] = tested on: PC-3; test: Cytotoxicity against human PC-3 cells assessed as reduction in cell viability incubated for 72 hrs by MTT assay; assay type: functional, cell-based; settings: PC-3, 72 h
[10] = Cytotoxicity against human RWPE-1 cells assessed as reduction in cell viability incubated for 48 hrs by SRB assay; assay type: toxicity, cell-based
[11] = Selectivity index, ratio of CC50 for cytotoxicity against human HEp-2 cells to EC50 for antiviral activity against Respiratory syncytial virus infected in human HEp-2 cells; assay type: toxicity, cell-based; settings: read-out: Ratio CC50/EC50
[12] = Cytotoxicity against human HEp-2 cells assessed as reduction in cell viability incubated for 48 hrs by MTT assay; assay type: toxicity, cell-based
[13] = tested on: Respiratory syncytial virus; test: Antiviral activity against Respiratory syncytial virus infected in human HEp-2 cells assessed as inhibition of virus-induced cytopathic effect measured after 6 days by CellTiter-Glo assay; assay type: functional, organism-based; settings: HEp-2, 144 h
[14] = tested on: HeLa; test: Antiproliferative activity against human HeLa cells assessed as reduction in cell viability by MTT assay; assay type: functional, cell-based
[15] = Antiproliferative activity against human […] cells assessed as reduction in cell viability by MTT assay; assay type: functional, cell-based

IC50 [1]: 16.7 µM
SMILES: COC(=O)c1cc2c(nc1C)[C@@]1(C)CC[C@H]3[C@@H](CC=C4C[C@@H](OC(C)=O)CC[C@@]43C)[C@@H]1C2
IC50 [2]: 26.5 µM | EC50 [3]: 17.1 µM

SMILES: CCOC1(OCC)NC(c2ccccc2)=C2C[C@H]3[C@@H]4CC[C@H]5C[C@@H](O)CC[C@]5(C)[C@H]4CC[C@]3(C)C2=C1C#N
LD50 at 336 h [4]: 4900 mg/kg | Activity [5]: 0.345 g | Activity [6]: 0.486 g | Ratio [7]: 1.41

SMILES: C[C@]12CC[C@H](O)CC1=CC[C@@H]1[C@@H]2CC[C@]2(C)C(c3cccnc3)=CC[C@@H]12 [ABIRATERONE]
IC50 [8]: 91 µM | IC50 [9]: 17.2 µM | IC50 at 48 h [10]: 645 µM

SMILES: C[C@]12CC[C@H](O)C[C@@H]1CC[C@@H]1[C@@H]2CC[C@]2(C)c3c(c(-c4ccc(Cl)cc4)[nH]c(=O)c3C#N)C[C@@H]12
LD50 at 336 h [4]: 4920 mg/kg | Activity [5]: 0.234 g | Activity [6]: 0.314 g | Ratio [7]: 1.34

SMILES: CCOc1nc(-c2ccccc2)c2c(c1C#N)[C@@]1(C)CC[C@H]3[C@@H](CC[C@H]4C[C@@H](O)CC[C@@]43C)[C@@H]1C2
LD50 at 336 h [4]: 4890 mg/kg | Activity [5]: 0.321 g | Activity [6]: 0.494 g | Ratio [7]: 1.54

IC50 [1]: 9.84 µM
SMILES: CCOC(=O)c1cc2c(nc1CCl)[C@@]1(C)CC[C@H]3[C@@H](CC=C4C[C@@H](OC(C)=O)CC[C@@]43C)[C@@H]1C2
IC50 [2]: 37.6 µM | EC50 [3]: 15.5 µM

SMILES: C[C@]12CC[C@H](O)C[C@@H]1CC[C@@H]1[C@@H]2CC[C@]2(C)c3c(C#N)c(S)nc(-c4ccccc4)c3C[C@@H]12
LD50 at 336 h [4]: 4910 mg/kg | Activity [5]: 0.421 g | Activity [6]: 0.577 g | Ratio [7]: 1.37

SMILES: CC(=O)O[C@H]1CC[C@@]2(C)C(=CC[C@H]3[C@@H]4CC[C@H](c5cc(-c6ccccc6Cl)c(C#N)c(N)n5)[C@@]4(C)CC[C@@H]32)C1
selectivity ratio [11]: 21.4 | CC50 at 48 h [12]: 303 µM | EC50 [13]: 14.1 µM

IC50 [1]: 10.3 µM
SMILES: CC(=O)O[C@H]1CC[C@@]2(C)C(=CC[C@@H]3[C@@H]2CC[C@]2(C)c4nc(C)c(C(C)=O)cc4C[C@@H]32)C1
IC50 [2]: 30.6 µM | EC50 [3]: 14.3 µM

SMILES: CC(=O)O[C@H]1CC[C@@]2(C)C(=CC[C@H]3[C@@H]4CC[C@H](c5cc(-c6ccnc(Br)c6)c(C#N)c(N)n5)[C@@]4(C)CC[C@@H]32)C1
selectivity ratio [11]: 172 | CC50 at 48 h [12]: 539 µM | EC50 [13]: 3.13 µM

IC50 [1]: 12.2 µM
SMILES: CCOC(=O)c1cc2c(nc1C)[C@@]1(C)CC[C@H]3[C@@H](CC=C4C[C@@H](OC(C)=O)CC[C@@]43C)[C@@H]1C2
IC50 [2]: 34.7 µM | EC50 [3]: 16.1 µM

IC50 [14]: ≥ 100 µM
SMILES: CCOC(=O)c1cc2c(cn1)C[C@H]1[C@@H]3CC=C4C[C@@H](OC(C)=O)CC[C@]4(C)[C@H]3CC[C@]21C
IC50 [15]: ≥ 100 µM

SMILES: C[C@]12CC[C@H](O)C[C@@H]1CC[C@@H]1[C@@H]2CC[C@]2(C)c3c(C#N)c(S)nc(-c4ccc(Cl)cc4)c3C[C@@H]12
LD50 at 336 h [4]: 4910 mg/kg | Activity [5]: 0.345 g | Activity [6]: 0.48 g | Ratio [7]: 1.39

SMILES: CCOC(=O)c1cc2c(nc1C(=O)OCC)[C@@]1(C)CC[C@H]3[C@@H](CC=C4C[C@@H](OC(C)=O)CC[C@@]43C)[C@@H]1C2
IC50 [8]: 100 µM | IC50 at 48 h [10]: 218 µM

IC50 [14]: ≥ 100 µM
SMILES: CC(=O)O[C@H]1CC[C@@]2(C)C(=CC[C@@H]3[C@@H]2CC[C@]2(C)c4cc(-c5ccc(F)cc5)ncc4C[C@@H]32)C1
IC50 [15]: ≥ 100 µM
